From ChEMBL document CHEMBL5346934 (J Med Chem, 2023)
pEC50, pIC50: −log10 of the molar value.

What was measured:
Type in all cases: functional, organism-based
Ectromelia virus = assay: Antiviral activity against ectromelia virus K-1 infected in Vero cells measured after 4 days by colorimetric assay; settings: K-1, Vero, 96 h
Vaccinia virus [1] = assay: Antiviral activity against Vaccinia virus Copenhagen infected in African green monkey Vero cells measured after 4 days by colorimetric assay; settings: Orthopoxvirus vaccinia, 96 h
Cowpox virus = assay: Antiviral activity against Cowpox virus Grishak infected in African green monkey Vero cells measured after 4 days by colorimetric assay; settings: 96 h
Vaccinia virus [2] = assay: Antiviral activity against Vaccinia virus infected in African green monkey CV-1 cells assessed as reduction in virus-induced cytopathic effect incubated for 5 days by colorimetric analysis; settings: Orthopoxvirus vaccinia, CV-1, 120 h

SMILES | pIC50 (Ectromelia virus) | pIC50 (Vaccinia virus [1]) | pIC50 (Cowpox virus) | IC50 (Vaccinia virus [1]) | pEC50 (Vaccinia virus [2])
CC1(C)[C@@H]2CC=C(C(=O)NC34CC5CC(CC(C5)C3)C4)[C@H]1C2 | 5.77 | 5.60 | 5.14 | – | –
O=C(NN1C(=O)C2C3C=CC(C4CC34)C2C1=O)c1cc(Br)cc(Br)c1O (centres undefined) | – | – | – | 1.05 µg/mL | –
O=C(NN1C(=O)C2C3C=CC(C4CC34)C2C1=O)c1cc(Cl)cc(Cl)c1 (centres undefined) | – | – | – | 0.95 µg/mL | –
O=C(NN1C(=O)C2C3C=CC(C4CC34)C2C1=O)c1ccc(O)c([N+](=O)[O-])c1 (centres undefined) | – | – | – | 0.38 µg/mL | –
CC[C@H]1CN2CCc3cc(OC)c(OC)cc3[C@@H]2CC1C[C@H]1NCCc2cc(O)c(OC)cc21 (some centres undefined) | – | – | – | – | 6.90
CCCCCCCCCCCCCC[N+]12CC[N+](CCCC(=O)N[C@@H](Cc3c[nH]cn3)C(=O)O)(CC1)CC2 | – | – | – | – | 3.40
CC1(C)[C@@H]2CC[C@@]1(C)/C(=N/NC(=O)C1CCC(F)(F)CC1)C2 | 5.11 | 5.74 | 5.08 | – | –
CCCCCCCCCCOc1ccc(C(=O)NN2C(=O)C3C4C=CC(C5CC45)C3C2=O)cc1 (centres undefined) | – | – | – | 1.7 µg/mL | –
CC1(C)[C@@H]2CC=C(CCNC(=O)C34CC5CC(CC(C5)C3)C4)[C@H]1C2 | 5.80 | 5.74 | 5.39 | – | –
CCCCCCCCCCCC[N+]12CC[N+](CC#CC[N+]34CC[N+](CCCCCCCCCCCC)(CC3)CC4)(CC1)CC2 | – | – | – | – | 4.00
O=C(Nc1cccc(C(F)(F)F)c1)C(=O)NN1C(=O)C2C3C=CC(C4CC34)C2C1=O (centres undefined) | – | – | – | 1.3 µg/mL | –
Cc1cccc(C)c1NC(=O)C(=O)NN1C(=O)C2C3C=CC(C4CC34)C2C1=O (centres undefined) | – | – | – | 1.28 µg/mL | –
CC1(C)[C@@H]2CC=C(CNC(=O)C34CC5CC(CC(C5)C3)C4)[C@H]1C2 | 5.57 | 5.77 | 5.33 | – | –
CC1(C)/C(=N\NC(=O)c2ccc(Cl)cc2)[C@]2(C)CC[C@H]1C2 | 5.10 | 6.05 | 5.31 | – | –
N=c1ccn2c(n1)O[C@H]1[C@H](O)[C@@H](CO)O[C@H]12 [ANCITABINE] | – | – | – | – | 5.00
COc1ccc(C[C@H]2NC[C@H](O)[C@H]2OC(C)=O)cc1 [ANISOMYCIN] | – | – | – | – | 6.60
C[C@@H]1C[C@@H]([C@H](O)CC2CC(=O)NC(=O)C2)C(=O)[C@@H](C)C1 [CYCLOHEXIMIDE] | – | – | – | – | 5.70
CO[C@H]1C[C@H](O[C@H]2CC[C@]3(C=O)[C@H]4CC[C@]5(C)[C@@H](C6=CC(=O)OC6)CC[C@]5(O)[C@@H]4CC[C@]3(O)C2)O[C@H](C)[C@H]1O [CYMARIN] | – | – | – | – | 6.60
C[C@H]1O[C@@H](O[C@H]2[C@@H](O)C[C@H](O[C@H]3[C@@H](O)C[C@H](O[C@H]4CC[C@@]5(C)[C@H](CC[C@@H]6[C@@H]5C[C@@H](O)[C@]5(C)[C@@H](C7=CC(=O)OC7)CC[C@]65O)C4)O[C@@H]3C)O[C@@H]2C)C[C@H](O)[C@@H]1O [DIGOXIN] | – | – | – | – | 6.60
CC[C@H]1CN2CCc3cc(OC)c(OC)cc3[C@@H]2C[C@@H]1C[C@H]1NCCc2cc(OC)c(OC)cc21 [EMETINE] | – | – | – | – | 6.60
CC(=O)O[C@H]1C[C@H](O[C@H]2[C@@H](O)C[C@H](O[C@H]3[C@@H](O)C[C@H](O[C@H]4CC[C@@]5(C)[C@H](CC[C@@H]6[C@@H]5C[C@@H](O)[C@]5(C)[C@@H](C7=CC(=O)OC7)CC[C@]65O)C4)O[C@@H]3C)O[C@@H]2C)O[C@H](C)[C@H]1O[C@@H]1O[C@H](CO)[C@@H](O)[C@H](O)[C@H]1O [LANATOSIDE C] | – | – | – | – | 6.30
COc1c(C)c2c(c(O)c1C/C=C(\C)CCC(=O)O)C(=O)OC2 [MYCOPHENOLIC ACID] | – | – | – | – | 6.00
CO[C@H]1[C@H](O)[C@H](O[C@H]2CC[C@@]3(C)[C@H](CC[C@@H]4[C@@H]3CC[C@]3(C)[C@@H](C5=CC(=O)OC5)CC[C@]43O)C2)O[C@@H](C)[C@@H]1O [NERIIFOLIN] | – | – | – | – | 5.30
C[C@@H]1O[C@@H](O[C@H]2C[C@@H](O)[C@]3(CO)[C@H]4[C@H](O)C[C@]5(C)[C@@H](C6=CC(=O)OC6)CC[C@]5(O)[C@@H]4CC[C@]3(O)C2)[C@H](O)[C@H](O)[C@H]1O [OUABAIN] | – | – | – | – | 6.60
